Where a name gives a salt, the structure may show the parent alone.
| melting point [°C] | SMILES |
| --- | --- |
| 101 to 102 | Clc1ccc(Cn2ccc(CN3CCC(c4ccccc4)(c4ccccc4)CC3)n2)c(Cl)c1 (as salt: hydrochloride) |
| 186 to 187 | Clc1ccc(Cc2ncc(CN3CCC(c4ccccc4)(c4ccccc4)CC3)[nH]2)cc1 (as salt: hydrochloride) |
| 135 to 136 | O=C(O)c1c(CN2CCC(c3ccccc3)(c3ccccc3)CC2)ncn1Cc1ccc(Cl)cc1 |
| 137 to 138 | Clc1ccc(Cn2ccc(CN3CCC(c4ccccc4)(c4ccccc4)CC3)n2)cc1 (as salt: hydrochloride) |
| 191 to 192 | Clc1ccc(Cn2ccc(CN3CCC(c4ccccc4)(c4ccccc4)CC3)n2)cc1Cl (as salt: hydrochloride) |
| 254 to 255 | Clc1ccc(Cn2cnc(CN3CCC(c4ccccc4)(c4ccccc4)CC3)c2)cc1 (as salt: hydrochloride) |
| 139 to 140 | Cc1ccc(Cn2ccc(CN3CCC(c4ccccc4)(c4ccccc4)CC3)n2)cc1C |
| 136 to 137 | Clc1cccc(Cn2ccc(CN3CCC(c4ccccc4)(c4ccccc4)CC3)n2)c1 |
| 133 to 134 | O=Cc1cn(Cc2ccc(Cl)cc2)nc1CN1CCC(c2ccccc2)(c2ccccc2)CC1 |
| 148 | Clc1ccc(Cn2cc(CN3CCC(c4ccccc4)(c4ccccc4)CC3)nn2)cc1 |
| 66 to 67 | FC(F)(F)c1ccc(Cn2ccc(CN3CCC(c4ccccc4)(c4ccccc4)CC3)n2)cc1 (as salt: hydrochloride) |
| 260 to 261 | Oc1cc(Cl)ccc1Cn1ccc(CN2CCC(c3ccccc3)(c3ccccc3)CC2)n1 (as salt: hydrochloride) |
| 181 to 182 | CN(C)C(=O)COc1cc(Cl)ccc1Cn1ccc(CN2CCC(c3ccccc3)(c3ccccc3)CC2)n1 (as salt: hydrochloride) |
| 104 to 105 | OCc1cn(Cc2ccc(Cl)cc2)nc1CN1CCC(c2ccccc2)(c2ccccc2)CC1 |
| 195 | Clc1ccc(Cn2nncc2CN2CCC(c3ccccc3)(c3ccccc3)CC2)cc1 |
| 73 to 74 | COc1cc(Cl)ccc1Cn1ccc(CN2CCC(c3ccccc3)(c3ccccc3)CC2)n1 (as salt: hydrochloride) |
| 147 to 148 | Cc1ccc(Cn2ccc(CN3CCC(c4ccccc4)(c4ccccc4)CC3)n2)cc1 (as salt: hydrochloride) |
| 227 to 228 | NC(=O)c1c(CN2CCC(c3ccccc3)(c3ccccc3)CC2)ncn1Cc1ccc(Cl)cc1 |
| 105 to 106 | O=C(c1cnc(Cc2ccc(Cl)cc2)[nH]1)N1CCC(c2ccccc2)(c2ccccc2)CC1 [Example 23, [2-(4-Chlorobenzyl)-1H-imidazol-5-yl](4,4-diphenyl-1-piperidinyl)methanone] |
| 192 to 193 | Fc1ccc(Cn2ccc(CN3CCC(c4ccccc4)(c4ccccc4)CC3)n2)cc1 (as salt: hydrochloride) |
